Laboratory results as given in a melting point compilation (Tetko et al.; mined from patent text by program, amines drawn as free bases though some values may be those of a salt).

Row | SMILES | melting point [°C]
1 | C=CCN1CCN(c2cc3c(cc2F)c(=O)c(C(=O)O)cn3CC=C)CC1 | 186
2 | Cc1cncn1CC#CCN1CCCC1=O | 194 to 197
3 | CNC(=N)Nc1c(Cl)cccc1Cl | 140
4 | Cc1cccc2nc3c(=O)[nH][nH]c(=O)c3c(O)c12 | 167 to 168
5 | COC(=O)c1cc(C(C)C)c(OS(=O)(=O)NC(=O)Cc2c(C(C)C)cc(C(C)C)cc2C(C)C)c(C(C)C)c1 | 144 to 146
6 | CC1(S(C)(=O)=O)C(I)=C(S(C)(=O)=O)C=CC1C(=O)O (centres undefined) | 66 to 67
7 | CCOC(=O)C(=O)Nc1ccc(Cl)cc1C(F)(F)F | 55 to 58
8 | Cc1cc(C#CC2CC2)cc(C)c1Oc1ccc(N)c(Nc2ccc(C#N)cc2)n1 | 82 to 85
9 | COc1cccc(NC(=O)NC2C(=O)N(CC34CC5CC(CC(C5)C3)C4)c3ccccc3N(c3ccccc3)C2=O)c1 (centres undefined) | 267 to 268
10 | CNC(=O)Nc1cc(C(C)(C)C)on1 | 187 to 188
11 | CCc1nc2cc(Nc3nccc(-c4ccc(N5CCN(CC)CC5)nc4)n3)ccc2o1 | 174 to 176
12 | COC(CSc1nc(SCc2ccccc2)n[nH]1)OC | 73 to 76
13 | NC(=S)NC[C@H]1CN(c2ccc(-n3cncn3)cc2)C(=O)O1 | 214 to 215
14 | CCOC(=O)COc1ccc(CCC(=O)OC)cc1[N+](=O)[O-] | 70 to 72
15 | O=C(O)Cc1ccc(Br)cc1F | 121 to 122
16 | CCN(CCCc1c[nH]c2ccc(Cl)cc12)C1COc2c(F)ccc(C(N)=O)c2C1 (centres undefined) | 149 to 156
17 | CCCNC(=O)Nc1c(C(=O)OCC)cnn1-c1ccccc1 | 117 to 118
18 | O=[N+]([O-])c1ccc(-c2nnsc2-c2ccc([N+](=O)[O-])cc2)cc1 | 185 to 186
19 | COCc1c(C(=O)OC)sc2nnsc12 | 123 to 124
20 | CCCCCN(C(=O)Nc1ccc(C(=O)O)cc1F)c1ccc2c(c1)C(C)(C)CCC2(C)C | 151 to 157
21 | CCOC(=O)c1ccc(C(F)(F)F)cc1N | 42 to 43
22 | C=CCC(Oc1cccc(C)c1C)C1=NCCN1 (centres undefined) | 72 to 74

Row | SMILES | melting point [°C]
23 | CC(=O)OI(OC(C)=O)c1ccc(-c2ccc(Cl)cc2)cc1 | 147 to 150
24 | N#Cc1ccc(N2C(=N)C3(CCCC3)NC2=O)cc1C(F)(F)F | 212 to 213
25 | CCCCOC(=O)c1cc(NC(=O)C2=C(C)OCCS2)ccc1Cl | 71 to 73
26 | COCC(=O)N1CCc2cc(S(=O)(=O)N3CCN(c4cccc(Cl)c4)CC3)ccc21 | 230
27 | COc1ccc2c(C(=O)Nc3ccc(F)c(C(F)(F)F)c3)nsc2c1 | 157
28 | C[C@@H]1Cc2cc3c(cc2C(c2ccc([N+](=O)[O-])c(Cl)c2)=NN1)OCO3 | 165 to 170
29 | O=C1CCC(=O)N1CC#CCN1CCCC1 | 93 to 94
30 | CNc1nnc(-c2cc(C(C)(C)C)c(O)c(C(C)(C)C)c2)s1 | 208
31 | CCCCCCCCCCOCC(O)CO (centres undefined) | 38.5 to 39
32 | Nc1c2c(nc3ccccc13)CCCC2N1CCCC1 (centres undefined) | 201 to 203
33 | CCOC(=O)c1ccccc1OCCCCCCCCCCC(=O)CCCCOc1ccc(Cl)cc1 | 95 to 96
34 | Cc1ccc(S(=O)(=O)OC[C@H]2COc3cc(F)c4c(c3O2)CC(=O)N4)cc1 | 205 to 206
35 | NCCOc1cc(F)cc2c1OCCC2 | 68 to 70
36 | O=C1Cc2cc(OCCN3CCC(Cc4ccc(F)cc4)CC3)ccc2N1 | 149 to 150
37 | CCc1c(Nc2cc(C)cc(C)c2)nc(OC)nc1OC | 113 to 114
38 | O=Cc1cccc(/C=C/c2nc(C3CCC3)cs2)c1 | 78 to 80
39 | Cn1nc(Br)c([N+](=O)[O-])c1NCc1ccccc1 | 133
40 | CCN1CC(O)CC1=O (centres undefined) | 53 to 54
41 | O=C(Nc1ccc(Br)cn1)[NH+]([O-])C(=O)c1c(Cl)cccc1Cl (centres undefined) | 230 to 235
42 | COc1ccc(C2=NN(C3CCN(S(=O)(=O)c4ccccc4C)CC3)C(=O)C(C)(C)C2)cc1OC | 132 to 133
43 | O=C(NC12CC3CC(CC(C3)C1)C2)c1cc(O)c(O)c(Cl)c1 | 244 to 247
44 | CCCCNC(=O)Nc1ccc(C)cc1 | 118 to 119

Row | SMILES | melting point [°C]
45 | CCC(CC)c1ccc(Cl)c2nc3n(c12)CCN3c1ccc(Br)cc1Cl | 165 to 168
46 | COc1cc(COc2cc3ncnc(Nc4ccc(Cl)cc4F)c3cc2OC)ccn1 | 202 to 204
47 | CCCCc1nn(C)c2c1CCc1c(C(N)=O)sc(Oc3ccc4c(c3)OCO4)c1-2 | 161 to 162
48 | COC(=O)c1ccccc1NC(=S)NN(C)C | 149 to 152
49 | CS(=O)(=O)c1ccc(C(=O)O)c(C(F)(F)F)c1F | 250 to 252
50 | COCCCn1c2ccc(O)cc2c2c3c(c(-c4ccccc4Cl)cc21)C(=O)NC3=O | 260 to 262
51 | CCOC(=O)C1CCN(C(=O)CCCOc2ccc3nc4[nH]c(=O)[nH]c4cc3c2)CC1 | 251 to 253
52 | CC(=O)CCC(CCC(C)=O)(C(C)=O)C(C)=O | 59
53 | CC(=O)Nc1nc(C)c(S(=O)(=O)n2c(CCCC(=O)O)cc3cc(Cl)ccc32)s1 | 231 to 233
54 | COC(=O)C(=CN(C)C)c1sc(Cl)nc1COc1ccccc1 | 114
55 | CCN(CC)c1ccc(C(=O)c2c(Cl)c(Cl)c(Cl)c(Cl)c2C(=O)O)c(C)c1 | 179 to 181
56 | COc1ccc2c3c1OC1C[C@@H](O)C=CC31CCN(C(=O)NC(C)C)C2 (some centres undefined) | 106 to 108
57 | COCCOCc1c(CN(C)C[C@@H](O)c2ccco2)sc2c(=O)c(C(=O)NCc3ccc(Cl)cc3)cn(C)c12 | 146 to 147
58 | COc1cn(C(C)(C)C(=O)N(C)C)nc1-c1ccccc1 | 114 to 116
59 | Cc1cc(C2=NN(C(=O)NC3CC3)C(C)Cc3cc4c(cc32)OCO4)ccc1[N+](=O)[O-] (centres undefined) | 171 to 175
60 | Cc1c(CN2CCc3c(c4ccccc4n3C)C2=O)ncn1S(=O)(=O)N(C)C | 194 to 196
61 | COc1nc2c(c(OC)n1)C(c1cc(OC)c(OC)c(OC)c1)C1=C(COC1=O)N2 (centres undefined) | 299 to 300
62 | O=[N+]([O-])c1cnn2c1NCCC2 | 251 to 252
63 | CC(=O)N1CC(C)(C)CN=C1N(N=CC(C=Cc1ccc(C(F)(F)F)cc1)=Cc1ccc(C(F)(F)F)cc1)C(C)=O | 70 to 72
64 | COC(=O)COC(=O)COc1ccc(N)cc1 | 76.5 to 78.5
65 | CNc1nnc(-c2ccc3ncn(-c4ccc(SC)cc4)c3c2)o1 | 224 to 225
66 | CCCC(=O)Nc1ccc2oc3c(c2c1)CCCC3 | 133 to 135

Further lines, results first:

Row | melting point [°C] | SMILES
67 | 96 to 97 | c1ccc(Sc2sc(-c3ccccc3)cc2-c2ccccc2)cc1
68 | 194 to 196 | COc1ccc(C(=O)Nc2ccccc2)cc1NC(=S)Nc1ccc(C(F)(F)F)cc1
69 | 200 to 201 | COc1cccc(C(C)n2nc(C(=O)O)c3c2-c2ccc(OCc4cncnc4)cc2CC3)c1 (centres undefined)
70 | 203 to 205 | O=C1C=C(Nc2ccccc2)C(=O)c2nccnc21
71 | 145 to 146 | CCOC(=O)CCc1cn(Cc2ccc(OCc3nc(-c4ccco4)oc3C)cc2)nc1O
72 | 96 to 103 | CCOC(=O)c1c(N(C)C)c2cc(C)ccc2n(Cc2ccccc2)c1=O
73 | 212 to 213 | Oc1cc(-c2c3ccccc3c(Br)c3sc4ccccc4c23)cc(Br)c1O
74 | 98 to 100 | Brc1cccc(C2Cc3cnc(Nc4ccc(CCNCc5ccccc5)cc4)nc3-c3ccccc32)c1 (centres undefined)
75 | 122 to 124 | O=C(c1ccccc1)c1cc2ccnc(N(Cc3ccccc3)Cc3ccccc3)c2[nH]1
76 | 150 to 152 | [O-][N+](=CC=Cc1ccccc1)c1ccccc1
77 | 188 to 189 | Brc1ccc(OC2CCN(c3nc4cccc5c4n3CCC5)CC2c2ccccc2)cc1 (centres undefined)
78 | 150 to 151 | Oc1cccc(/C=C/c2nc(-c3ccccc3)cs2)c1
79 | 87 | CCCOc1ccc2ccccc2c1-c1c(OCCC)ccc2ccccc12
80 | 65 to 67 | CCCCCCCCCCCCCCOc1ccc(CN(C(=O)c2cccnc2)c2ccccc2)cc1
81 | 171 to 172 | CC(C)n1c(C=O)c(-c2ccc(F)cc2)c(-c2ccccc2)c1C(=O)NCc1ccc(F)cc1
82 | 203 to 204 | CC(=O)Nc1ccc(-c2c(Cl)c(CCl)nc3sc4c(c23)CCN(Cc2ccccc2)C4)cc1
83 | 90 to 92 | Brc1ccc(-c2coc3ccc(-c4ccccc4)cc23)cc1

Row | melting point [°C] | SMILES
84 | 256 to 257 | CN(C)c1ccc2cc(-c3ccnc(N)c3C#N)ccc2c1
85 | 88 to 94 | CC(C#N)c1cccc(C(=O)c2ccccc2)c1 (centres undefined)
86 | 137 to 138 | c1ccc(-c2nsc(N3CCN(c4ccccn4)CC3)n2)cc1
87 | 142 to 143 | Cc1ccc(C)c(S(=O)(=O)c2ccc(F)c3ccccc23)c1
88 | 126 to 128 | CCC(Oc1ccc(CCC(=O)c2ccc(-c3ccc(C(F)(F)F)cc3)s2)cc1Br)C(=O)O (centres undefined)
89 | 86 to 87 | O=C1c2ccccc2CN1CCSc1ccncc1
90 | 270 to 274 | c1ccc2c(c1)c1ccccc1n2-c1ccc(-n2ccnc2-c2nccn2-c2ccc(-n3c4ccccc4c4ccccc43)cc2)cc1
91 | 150 to 151 | Cc1ccc(-c2ccc3c(c2)C=C(C(=O)Nc2ccc(CN(CCO)CCO)cc2)CC3)cc1
92 | 92 to 95 | CCCCCC(OC(C)=O)c1ccccc1COc1cccc2ccc(=O)[nH]c12 (centres undefined)
93 | 221 to 222 | NS(=O)(=O)c1cc(C(=O)O)cc(NCc2ccccc2)c1-c1ccccc1
94 | 160 to 162 | Nc1cccc(-c2ccc(CCN3CCN(C(=O)Nc4ccc(Cl)cc4)CC3)cc2)n1
95 | 143 to 144 | CC(C)CCSc1cc(C(=O)O)cc(N=Nc2cc(C(=O)O)cc(SCCC(C)C)c2C(=O)c2ccccc2)c1C(=O)c1ccccc1
96 | 129 to 130 | CCOC(=O)NN(C)c1ccc(-c2ccccc2)nn1
97 | 51 to 56 | CC(CN=C1c2cccc3cccc(c23)N1C(c1ccccc1)c1ccccc1)Cn1ccnc1 (centres undefined)
98 | 106 to 107 | COC(=O)CNc1ccc(OCc2ccccc2)cc1
99 | 178 to 180 | Cn1c(-c2ccccc2Nc2cccc(C(F)(F)F)c2)n[nH]c1=O
